The values that follow come from ChEMBL document CHEMBL3580628, “Introduction of polar groups on the naphthalene scaffold of molecular tongs inhibiting wild-type and mutated HIV-1 protease dimerization” (Medchemcomm, 2014).

In series [1] the target is Protease (Human immunodeficiency virus 1) (UniProt Q9YQ12). The experiment in a line: Competitive inhibition of HIV1 protease using fluorogenic substrate DABCYL- -abu-SQNYPIVQ-EDANS assessed as dissociation for dimer-inhibitor complex at 28 uM at pH 4.7 by fluorimetric assay.
A short description of series [2]: Retention time of the compound. It is filed as physicochemical.
The target in series [3] is T1, Protease (Human immunodeficiency virus 1, UniProt Q9YQ12). The experiment in a line: Dimerziation inhibition of HIV1 wild type protease using fluorogenic substrate DABCYL- -abu-SQNYPIVQ-EDANS at pH 4.7 by fluorimetric assay.
Series [4] can be described thus: Dimerziation inhibition of HIV1 ANAM11 protease mutant using fluorogenic substrate DABCYL- -abu-SQNYPIVQ-EDANS at pH 4.7 by fluorimetric assay. More on the design: species or system Human immunodeficiency virus 1.
The nature of series [5]: Metabolic stability in Roswell park memorial institute medium containing 20% fetal calf serum assessed as degradation after 48 hrs by HPLC analysis. It is filed as ADME. The conditions noted are these: cattle.
For series [6], the target named is T1, Protease. The experiment in a line: Competitive inhibition of HIV1 protease using fluorogenic substrate DABCYL- -abu-SQNYPIVQ-EDANS assessed as dissociation for dimer-inhibitor complex at pH 4.7 by fluorimetric assay.

Regarding `COc1ccc(NC(C)=O)cc1C(=O)NNC(=O)[C@H](CCCCNC(=O)CCCOc1ccc2cc(CCCN)c(OCCCC(=O)NCCCC[C@H](NC(=O)OC(C)(C)C)C(=O)NNC(=O)c3cc(NC(C)=O)ccc3OC)cc2c1)NC(=O)OC(C)(C)C`, the inhibition in series [1] was determined as 35%. This compound also registered a Retention_time in series [2] of 11.4 min.

`COc1ccc(NC(C)=O)cc1C(=O)NNC(=O)[C@@H](NC(=O)CCCOc1ccc2cc(NCC3COC(C)(C)O3)c(OCCCC(=O)N[C@H](C(=O)NNC(=O)c3cc(NC(C)=O)ccc3OC)C(C)C)cc2c1)C(C)C` (some centres not stated) returned a Ki at Protease [3] of 2700 nM. Moreover, in series [2], the Retention_time is reported as 14.2 min.

`COc1ccc(NC(C)=O)cc1C(=O)NNC(=O)[C@H](CCCCNC(=O)CCCOc1ccc2ccc(OCCCC(=O)NCCCC[C@H](NC(=O)OC(C)(C)C)C(=O)NNC(=O)c3cc(NC(C)=O)ccc3OC)cc2c1)NC(=O)OC(C)(C)C`: the Ki on Protease [3] is 280 nM; in series [4], 2000 nM. The Retention_time in series [2] amounted to 14.8 min.

`COc1ccc(NC(C)=O)cc1C(=O)NNC(=O)[C@H](CCCCNC(=O)CCCOc1ccc2cc(NCC3COC(C)(C)O3)c(OCCCC(=O)NCCCC[C@H](NC(=O)OC(C)(C)C)C(=O)NNC(=O)c3cc(NC(C)=O)ccc3OC)cc2c1)NC(=O)OC(C)(C)C` (some centres not stated): the Ki at Protease [3] worked out at 5900 nM. In series [2], this compound came in with a Retention_time of 15.2 min.

With `CNCC(=O)Nc1cc2ccc(OCCCC(=O)NCCCC[C@H](NC(=O)OC(C)(C)C)C(=O)NNC(=O)c3cc(NC(C)=O)ccc3OC)cc2cc1OCCCC(=O)NCCCC[C@H](NC(=O)OC(C)(C)C)C(=O)NNC(=O)c1cc(NC(C)=O)ccc1OC`, the inhibition in series [1] amounted to 18%. In series [2], this compound gave a Retention_time of 11.1 min.

Take `COc1ccc(NC(C)=O)cc1C(=O)NNC(=O)[C@H](CCCCNC(=O)CCCOc1ccc2cc(NC(=O)CN3CCNCC3)c(OCCCC(=O)NCCCC[C@H](NC(=O)OC(C)(C)C)C(=O)NNC(=O)c3cc(NC(C)=O)ccc3OC)cc2c1)NC(=O)OC(C)(C)C`: the inhibition in series [1] was 18%. The same compound came in with a Retention_time in series [2] of 11.2 min.

As for `COc1ccc(NC(C)=O)cc1C(=O)NNC(=O)[C@H](CCCCNC(=O)CCCOc1ccc2cc(CN)c(OCCCC(=O)NCCCC[C@H](NC(=O)OC(C)(C)C)C(=O)NNC(=O)c3cc(NC(C)=O)ccc3OC)cc2c1)NC(=O)OC(C)(C)C`, the Ki on Protease [3] is 300 nM; in series [4], 2450 nM. For the same compound, the Retention_time in series [2] came out at 11.1 min.

As for `COc1ccc(NC(C)=O)cc1C(=O)NNC(=O)[C@H](CCCCNC(=O)CCCOc1ccc2cc(N)c(OCCCC(=O)NCCCC[C@H](NC(=O)OC(C)(C)C)C(=O)NNC(=O)c3cc(NC(C)=O)ccc3OC)cc2c1)NC(=O)OC(C)(C)C`, the Ki at Protease [3] was 550 nM; in series [4], 830 nM. Moreover, the Retention_time in series [2] was 12.2 min. In addition, the Stability entry in series [5] is “Stable”.

With `COc1ccc(NC(C)=O)cc1C(=O)NNC(=O)[C@@H](NC(=O)CCCOc1ccc2cc(N)c(OCCCC(=O)N[C@H](C(=O)NNC(=O)c3cc(NC(C)=O)ccc3OC)C(C)C)cc2c1)C(C)C`, the values for the Ki (on Protease [3]; in series [4]) were 400 nM and 940 nM, respectively. In addition, in series [2], the Retention_time is 10.6 min.

For the compound `COc1ccc(NC(C)=O)cc1C(=O)NNC(=O)[C@@H](NC(=O)CCCOc1ccc2ccc(OCCCC(=O)N[C@H](C(=O)NNC(=O)c3cc(NC(C)=O)ccc3OC)C(C)C)cc2c1)C(C)C`, affinity on Protease [3] was put at a Ki of 220 nM. This compound showed a Retention_time in series [2] of 13.8 min.

As for `COc1ccc(NC(C)=O)cc1C(=O)NNC(=O)[C@@H](NC(=O)CCCOc1ccc2cc(NCC(O)CO)c(OCCCC(=O)N[C@H](C(=O)NNC(=O)c3cc(NC(C)=O)ccc3OC)C(C)C)cc2c1)C(C)C` (some centres not stated), the Ki at Protease [3] was determined as 600 nM; in series [4] it was 940 nM. The Retention_time in series [2] is 11.3 min. Besides, the Stability result in series [5] is recorded as “Stable”.

On to `COc1ccc(NC(C)=O)cc1C(=O)NNC(=O)[C@H](CCCCNC(=O)CCCOc1ccc2cc(NC(=O)CN3CCN(C(=O)OCc4ccccc4)CC3)c(OCCCC(=O)NCCCC[C@H](NC(=O)OC(C)(C)C)C(=O)NNC(=O)c3cc(NC(C)=O)ccc3OC)cc2c1)NC(=O)OC(C)(C)C`, for which, in series [1], the inhibition is 0%. Further, the Retention_time in series [2] was 13.8 min.

For `COc1ccc(NC(C)=O)cc1C(=O)NNC(=O)[C@H](CCCCNC(=O)CCCOc1ccc2cc(NCC(O)CO)c(OCCCC(=O)NCCCC[C@H](NC(=O)OC(C)(C)C)C(=O)NNC(=O)c3cc(NC(C)=O)ccc3OC)cc2c1)NC(=O)OC(C)(C)C` (some centres not stated), the Ki on Protease [3] amounted to 2750 nM. Moreover, the Retention_time in series [2] was 12.7 min.

For `COc1ccc(NC(C)=O)cc1C(=O)NNC(=O)[C@H](CCCCNC(=O)CCCOc1ccc2cc(CCCN(C)C)c(OCCCC(=O)NCCCC[C@H](NC(=O)OC(C)(C)C)C(=O)NNC(=O)c3cc(NC(C)=O)ccc3OC)cc2c1)NC(=O)OC(C)(C)C`, the inhibition in series [1] is 0%. The Retention_time in series [2] is recorded as 11.4 min.

As to `COc1ccc(NC(C)=O)cc1C(=O)NNC(=O)[C@H](CCCCNC(=O)CCCOc1ccc2cc(CNC(=N)N)c(OCCCC(=O)NCCCC[C@H](NC(=O)OC(C)(C)C)C(=O)NNC(=O)c3cc(NC(C)=O)ccc3OC)cc2c1)NC(=O)OC(C)(C)C`, the Ki on Protease [6] worked out at 15000 nM. Besides, the Retention_time in series [2] was 11.2 min.
